Experimental data published in patent US20230201185A1, “TREATMENT OF TYPE 2 DIABETES OR OBESITY OR OVERWEIGHT WITH 2-[(4-{6-[(4-CYANO-2-FLUOROBENZYL)OXY]PYRIDIN-2-YL}PIPERIDIN-1-YL)METHYL]-1-[(2S)-OXETAN-2-YLMETHYL]-1H-BENZIMIDAZOLE-6-CARBOXYLIC ACID OR A PHARMACEUTICALLY SALT THEREOF” (Pfizer Inc., priority 2020, published 2023).
Like-named read-outs stand apart in the source and are kept apart here.

Key:
Type in all cases: in vivo, human
[1] = Clinical dose guiding study: body weight; conditions: Day 28, oral, T2DM on metformin
Source text: (§1) This study was a randomized, double-blind (sponsor-open), parallel, placebo-controlled, multiple oral dose-escalating study of Compound 1 (in the form of its tris salt) in participants with type 2 diabetes mellitus (T2DM) on a background of metformin monotherapy.
(§2) A total of 98 participants received oral doses of Compound 1 (in the form of its tris salt) or matching placebo for 28 days, in this study. A total of approximately 12 participants were enrolled in each cohort with a randomization ration of 3:1 (9 active and 3 placebo), and 8 cohorts were enrolled in the study. Participants were admitted to the clinical research unit (CRU) on or before Day −2 and were discharged following completion of all assessments on Day 30, at principal investigator discretion. For individual participants, the total duration of participation from the Screening visit to the on-site Follow-up visit was approximately 15 weeks. A Follow-up visit and a Follow-up contact (which have been conducted by phone call) occurred 35-42 days and 56-63 days following the first dose of investigational product on Day 1, respectively. Participants who discontinued prior to completion of the study might have been replaced, at the discretion of the principal investigator and Sponsor. 92 participants completed the inpatient study.
(§3) The planned titration schemes and dosing paradigms for all Cohorts are listed in Table 2-1. • QD: once daily • BID: twice daily
(§4) Diagnosis and Main Criteria for Inclusion: The population for this study was female participants of non-childbearing potential and/or male participants with T2DM, with an HbA1c […], who were taking metformin as their only anti-hyperglycemic treatment, and who were between 18 and 70 years with T2DM at the time of consent and Screening, with a body mass index (BMI) of 24.5 to 45.4 kg/m^2 and a total body weight >50 kg (110 lb). Metformin dose was required to be 500 mg per day and was required to be stable, for at least 2 months prior to the Screening visit and was administered in the CRU according to patient's baseline dosing regimen.
(§5) Study Treatment: Compound 1 (in the form of its tris salt) was supplied as 1 mg, 10 mg, 50 mg and 100 mg immediate release (IR) tablets or 50 mg controlled release (CR) tablets (see Examples 1 and 2) for oral administration. Matching placebo tablets (2:1, Microcrystalline Cellulose: Lactose) were also provided.
(§6) Measurements of fasting plasma glucose (FPG), 24-hour mean daily glucose (MDG), HbA1C, and body weight at baseline (at Day −1) and at Day 28 (shown as change from baselin) are shown in Tables 2-2 to 2-5.
(§7) Baseline was defined as the measurement (MDG, FPG, HbA1c, or body weight) on Day −1. Randomized treatment represented the target dose at Day 28.

[2] = tested on: participants with type 2 diabetes mellitus (T2DM); assay: Clinical dose guiding study: HbA1c; conditions: Day 28, oral, on metformin
Source text: as §1, §2, §3, §4, §5, §6, §7

[3] = tested on: participants with type 2 diabetes mellitus (T2DM); assay: Clinical dose guiding study: adverse events (TEAEs); conditions: for number of all causality TEAEs (events) / number of all causality TEAEs: 28 days
Source text: as §1, §2, §5

[4] = tested on: participants with type 2 diabetes mellitus (T2DM); assay: Clinical dose guiding study: ECG; conditions: planned treatment groups; self-limited
Source text: as §1
as §2, with “inpatient study. […]” for “inpatient study.”

[5] = tested on: participants with type 2 diabetes mellitus (T2DM); assay: Clinical dose guiding study: 24-hour mean daily glucose (MDG); conditions: Day 28; for Mean Daily Glucose, Mean CFB: oral, on metformin
Source text: as §1, §2, §3, §4, §5, §6, §7
Observed data presented. Mean Daily Glucose (MDG) was defined as AUC24/24.

[6] = Clinical dose guiding study: plasma pharmacokinetics and urinary recovery; conditions: for Tmax: read-out: median Tmax and Tmax1
Source text: as §1, §2, §5

[7] = tested on: participants with type 2 diabetes mellitus (T2DM); assay: Clinical dose guiding study: fasting plasma glucose (FPG); conditions: Day 28, oral, on metformin
Source text: as §1, §2, §3, §4, §5, §6, §7

Q: Which results are given for `N#Cc1ccc(COc2cccc(C3CCN(Cc4nc5ccc(C(=O)O)cc5n4C[C@@H]4CCO4)CC3)n2)c(F)c1` [1,3-dihydroxy-2-(hydroxymethyl)propan-2-aminium 2-[(4-{6-[(4-cyano-2-fluorobenzyl)oxy]pyridin-2-yl}piperidin-1-yl)methyl]-1-[(2S)-oxetan-2-ylmethyl]-1H-benzimidazole-6-carboxylate]?
A: Body Weight, Mean CFB ([1]; 10 mg BID, baseline 99.90): -2.8 kg; Body Weight, Mean CFB ([1]; 15mg BID, baseline 93.60): -2.4 kg; Body Weight, Mean CFB ([1]; 50 mg BID, baseline 88.24): -2.4 kg; Body Weight, Mean CFB ([1]; 70 mg BID, baseline 86.08): -4.0 kg; Body Weight, Mean CFB ([1]; 120 mg BID Slow Titration, baseline 88.01): -5.5 kg; Body Weight, Mean CFB ([1]; 120 mg BID, baseline 101.34): -7.9 kg; Body Weight, Mean CFB ([1]; 120 mg QD, baseline 84.88): -4.3 kg; Body Weight, Mean CFB ([1]; 200 mg QD Controlled Release, baseline 92.29): -3.1 kg; HbA1c, Mean CFB ([2]; 10 mg BID, baseline 8.2): −0.8%; HbA1c, Mean CFB ([2]; 15 mg BID, baseline 8.6): −0.9%; HbA1c, Mean CFB ([2]; 50 mg BID, baseline 8.3): −1.2%; HbA1c, Mean CFB ([2]; 70 mg BID, baseline 8.3): −1.2%; HbA1c, Mean CFB ([2]; 120 mg BID Slow Titration, baseline 8.2): −1.2%; HbA1c, Mean CFB ([2]; 120 mg BID, baseline 8.5): −1.2%; HbA1c, Mean CFB ([2]; 120 mg QD, baseline 8.2): −1.0%; HbA1c, Mean CFB ([2]; 200 mg QD Controlled Release, baseline 8.6): −1.1%; incidence of all causalities TEAEs in Gastrointestinal Disorders category ([3]; 10 mg BID group (placebo 52.0%)): 33.3%; number of all causality TEAEs (events) ([3]; 10 mg BID group): 8 events; number of all causality TEAEs (events) ([3]; 15 mg BID group): 16 events; participants discontinued from the study due to treatment-related TEAEs ([3]; 15 mg BID group, moderate TEAE of headache): 1 participant; participants with dose reduction or temporary discontinuation due to TEAEs ([3]; 50 mg BID group): 4 participants; number of all causality TEAEs ([3]; 50 mg BID group): 45; participants discontinued from the study due to treatment-related TEAEs ([3]; 50 mg BID group, moderate decreased appetite, nausea, vomiting and mild fatigue): 1 participant; number of all causality TEAEs ([3]; 70 mg BID group): 31; participants with dose reduction or temporary discontinuation due to TEAEs ([3]; 120 mg BID Slow titration group): 2 participants; participants with dose reduction or temporary discontinuation due to TEAEs ([3]; 120 mg BID group): 1 participants; number of all causality TEAEs ([3]; 120 mg BID group): 43; participants with mild hypoglycemia ([3]; 120 mg BID group, after missing a meal or snack, self-limited, treatment-related): 1 participant; severe TEAEs ([3]; 120 mg BID slow titration group, 1 treatment-related, 1 not): 2; number of all causality TEAEs (events) ([3]; 120 mg BID slow titration group): 50 events; SAE ([3]; 120 mg BID slow titration group, not treatment-related): 1; number of all causality TEAEs ([3]; 120 mg QD group): 35; participants with dose reduction or temporary discontinuation due to TEAEs ([3]; 200 mg QD CR group): 1 participants; number of all causality TEAEs ([3]; 200 mg QD CR group): 47; adverse trends in safety laboratory tests, vital signs or ECG parameters with increasing dose ([3]; ascending, multiple, oral doses): no clinically significant adverse trends; overall safety and tolerability ([3]; ascending, multiple, oral doses, adult participants with T2DM): generally safe and well-tolerated; participants with post-baseline ECG meeting criteria of QTcF interval >450 and ≤80 or change from baseline >30 and ≤60 [4]: 3 participants; Mean Daily Glucose, Mean CFB ([5]; 10 mg BID, baseline 189.9): -53.3 mg/dL; Mean Daily Glucose, Mean CFB ([5]; 15 mg BID, baseline 225.4): -85.9 mg/dL; Mean Daily Glucose, Mean CFB ([5]; 50 mg BID, baseline 190.2): -48.7 mg/dL; Mean Daily Glucose, Mean CFB ([5]; 70 mg BID, baseline 218.5): -101.6 mg/dL; Mean Daily Glucose, Mean CFB ([5]; 120 mg BID Slow Titration, baseline 179.9): -68.6 mg/dL; Mean Daily Glucose, Mean CFB ([5]; 120 mg BID, baseline 219.0): -105.9 mg/dL; Mean Daily Glucose, Mean CFB ([5]; 120 mg QD, baseline 188.8): -70.9 mg/dL; Mean Daily Glucose, Mean CFB ([5]; 200 mg QD Controlled Release, baseline 225.2): -102.8 mg/dL; reductions in FPG, MDG, HbA1c, and body weight ([5]; increasing efficacy at higher doses of 70 mg to 120 mg twice daily): robust reductions; dose proportionality of exposure (dose normalized mean AUC24) ([6]; Day 1, BID and QD treatments, IR formulation): approximately dose proportional; dose proportionality of AUC24 and Cmax ([6]; Day 28, BID IR formulation cohorts): approximately dose-proportional; Tmax ([6]; human, plasma, Day 1, single oral dose, IR formulation, QD and BID regimens): 2 to 4 h; Fasting Plasma Glucose, Mean CFB ([7]; 10 mg BID, baseline 158.3): -34.3 mg/dL; Fasting Plasma Glucose, Mean CFB ([7]; 15 mg BID, baseline 198.4): -66.6 mg/dL; Fasting Plasma Glucose, Mean CFB ([7]; 50 mg BID, baseline 168.1): -34.5 mg/dL; Fasting Plasma Glucose, Mean CFB ([7]; 70 mg BID, baseline 186.3): -80.6 mg/dL; Fasting Plasma Glucose, Mean CFB ([7]; 120 mg BID Slow Titration, baseline 176.3): -75.1 mg/dL; Fasting Plasma Glucose, Mean CFB ([7]; 120 mg BID, baseline 196.9): -89.7 mg/dL; Fasting Plasma Glucose, Mean CFB ([7]; 120 mg QD, baseline 179.9): -48.3 mg/dL; Fasting Plasma Glucose, Mean CFB ([7]; 200 mg QD Controlled Release, baseline 195.3): -77.3 mg/dL

Q: With `N#Cc1ccc(COc2cccc(C3CCN(Cc4nc5ccc(C(=O)O)cc5n4C[C@@H]4CCO4)CC3)n2)c(F)c1` [Compound 1, 2-[(4-{6-[(4-Cyano-2-fluorobenzyl)oxy]pyridin-2-yl}piperidin-1-yl)methyl]-1-[(2S)-oxetan-2-ylmethyl]-1H-benzimidazole-6-carboxylic acid] as the compound, how does the “Urinary recovery, dose recovered unchanged in urine” value ([6]; Day 28) read?
A: < 0.1 % of the dose

Q: What about the Tmax ([6]; human, plasma, oral, Day 28, BID and QD IR treatments) of the same compound?
A: 3 to 10 h

Q: And the half-life ([6]; human, plasma, oral, across all treatments, read-out: Mean t % (terminal half life))?
A: 4.7 to 8.1 h
